Results reported in the CheMixHub viscosity set.

Test: xn = mol fraction of the nth substance listed

CC1COC(=O)O1 (centres undefined) + CO
Details	viscosity [mPa·s]
298 K, 101.3 kPa, x1 = 0.0206	0.5726
298 K, 101.3 kPa, x1 = 0.0401	0.593
298 K, 101.3 kPa, x1 = 0.0604	0.6164
298 K, 101.3 kPa, x1 = 0.0808	0.6364
298 K, 101.3 kPa, x1 = 0.1018	0.6594
298 K, 101.3 kPa, x1 = 0.2016	0.7765
298 K, 101.3 kPa, x1 = 0.301	0.9078
298 K, 101.3 kPa, x1 = 0.401	1.058
298 K, 101.3 kPa, x1 = 0.5016	1.229
298 K, 101.3 kPa, x1 = 0.6002	1.418
298 K, 101.3 kPa, x1 = 0.7006	1.635
298 K, 101.3 kPa, x1 = 0.8004	1.877
298 K, 101.3 kPa, x1 = 0.9007	2.148
298.15 K, 101.33 kPa, x2 = 0.0512	2.266
298.15 K, 101.33 kPa, x2 = 0.0983	2.097
298.15 K, 101.33 kPa, x2 = 0.1406	1.958
298.15 K, 101.33 kPa, x2 = 0.1883	1.811
298.15 K, 101.33 kPa, x2 = 0.2587	1.616
298.15 K, 101.33 kPa, x2 = 0.343	1.414
298.15 K, 101.33 kPa, x2 = 0.3986	1.298
298.15 K, 101.33 kPa, x2 = 0.4723	1.167
298.15 K, 101.33 kPa, x2 = 0.5124	1.107
298.15 K, 101.33 kPa, x2 = 0.5819	1.001
298.15 K, 101.33 kPa, x2 = 0.6762	0.8678
298.15 K, 101.33 kPa, x2 = 0.758	0.7707
298.15 K, 101.33 kPa, x2 = 0.8297	0.6887
298.15 K, 101.33 kPa, x2 = 0.9256	0.5981
298.15 K, 101.33 kPa, x2 = 0.9495	0.5805
308.15 K, 101.33 kPa, x2 = 0.0512	1.895
308.15 K, 101.33 kPa, x2 = 0.0983	1.757
308.15 K, 101.33 kPa, x2 = 0.1406	1.648
308.15 K, 101.33 kPa, x2 = 0.1883	1.533
308.15 K, 101.33 kPa, x2 = 0.2587	1.377
308.15 K, 101.33 kPa, x2 = 0.343	1.213
308.15 K, 101.33 kPa, x2 = 0.4723	1.002
308.15 K, 101.33 kPa, x2 = 0.5124	0.948
308.15 K, 101.33 kPa, x2 = 0.5819	0.8651
308.15 K, 101.33 kPa, x2 = 0.6762	0.7581
308.15 K, 101.33 kPa, x2 = 0.8297	0.6034
308.15 K, 101.33 kPa, x2 = 0.8931	0.5517
308.15 K, 101.33 kPa, x2 = 0.9256	0.5282
308.15 K, 101.33 kPa, x2 = 0.9495	0.5118
318.15 K, 101.33 kPa, x2 = 0.0512	1.594
318.15 K, 101.33 kPa, x2 = 0.0983	1.48
318.15 K, 101.33 kPa, x2 = 0.1406	1.393
318.15 K, 101.33 kPa, x2 = 0.1883	1.296
318.15 K, 101.33 kPa, x2 = 0.2587	1.169
318.15 K, 101.33 kPa, x2 = 0.343	1.034
318.15 K, 101.33 kPa, x2 = 0.3986	0.9607
318.15 K, 101.33 kPa, x2 = 0.4723	0.8683
318.15 K, 101.33 kPa, x2 = 0.5124	0.8232
318.15 K, 101.33 kPa, x2 = 0.5819	0.7459
318.15 K, 101.33 kPa, x2 = 0.8297	0.5281
318.15 K, 101.33 kPa, x2 = 0.8931	0.4829
318.15 K, 101.33 kPa, x2 = 0.9256	0.4621
318.15 K, 101.33 kPa, x2 = 0.9495	0.4486

COc1ccccc1 + CO
Details	viscosity [mPa·s]
298.15 K, 101 kPa, x1 = 0.0501	0.586
298.15 K, 101 kPa, x1 = 0.1098	0.623
298.15 K, 101 kPa, x1 = 0.1821	0.662
298.15 K, 101 kPa, x1 = 0.2706	0.707
298.15 K, 101 kPa, x1 = 0.3822	0.756
298.15 K, 101 kPa, x1 = 0.5271	0.809
298.15 K, 101 kPa, x1 = 0.7214	0.886
298.15 K, 101.33 kPa, x1 = 0.1024	0.6111
298.15 K, 101.33 kPa, x1 = 0.2039	0.67
298.15 K, 101.33 kPa, x1 = 0.2982	0.7131
298.15 K, 101.33 kPa, x1 = 0.4027	0.7591
298.15 K, 101.33 kPa, x1 = 0.4998	0.8009
298.15 K, 101.33 kPa, x1 = 0.5991	0.8271
298.15 K, 101.33 kPa, x1 = 0.7068	0.8651
298.15 K, 101.33 kPa, x1 = 0.8061	0.8975
298.15 K, 101.33 kPa, x1 = 0.9023	0.9373
303 K, 101.3 kPa, x1 = 0.0499	0.5675
303 K, 101.3 kPa, x1 = 0.1091	0.6038
303 K, 101.3 kPa, x1 = 0.2686	0.6883
303 K, 101.3 kPa, x1 = 0.5242	0.7935
303 K, 101.3 kPa, x1 = 0.7199	0.8751
303.15 K, 101.33 kPa, x1 = 0.1024	0.574
303.15 K, 101.33 kPa, x1 = 0.2039	0.6257
303.15 K, 101.33 kPa, x1 = 0.2982	0.6672
303.15 K, 101.33 kPa, x1 = 0.4027	0.7035
303.15 K, 101.33 kPa, x1 = 0.4998	0.7455
303.15 K, 101.33 kPa, x1 = 0.5991	0.7718
303.15 K, 101.33 kPa, x1 = 0.7068	0.8059
303.15 K, 101.33 kPa, x1 = 0.8061	0.8374
303.15 K, 101.33 kPa, x1 = 0.9023	0.8779
308.15 K, 101.33 kPa, x1 = 0.1024	0.5506
308.15 K, 101.33 kPa, x1 = 0.2039	0.5983
308.15 K, 101.33 kPa, x1 = 0.2982	0.638
308.15 K, 101.33 kPa, x1 = 0.4027	0.6731
308.15 K, 101.33 kPa, x1 = 0.4998	0.7065
308.15 K, 101.33 kPa, x1 = 0.5991	0.735
308.15 K, 101.33 kPa, x1 = 0.7068	0.7683
308.15 K, 101.33 kPa, x1 = 0.8061	0.7978
308.15 K, 101.33 kPa, x1 = 0.9023	0.8373
313.15 K, 101.33 kPa, x1 = 0.1024	0.4934
313.15 K, 101.33 kPa, x1 = 0.2039	0.5372
313.15 K, 101.33 kPa, x1 = 0.2982	0.5706
313.15 K, 101.33 kPa, x1 = 0.4027	0.6023
313.15 K, 101.33 kPa, x1 = 0.4998	0.6345
313.15 K, 101.33 kPa, x1 = 0.5991	0.6601
313.15 K, 101.33 kPa, x1 = 0.7068	0.6865
313.15 K, 101.33 kPa, x1 = 0.8061	0.7174
313.15 K, 101.33 kPa, x1 = 0.9023	0.751
